Test results reported in patent US20200129561A1, “DELIVERY OF AUTOLOGOUS CELLS COMPRISING MATRIX METALLOPROTEINASE FOR TREATMENT OF SCLERODERMA” (Intrexon Corporation, priority 2017, published 2020).

Assay: Nonclinical studies of veledimex control of target protein expression: tissue level of veledimex
Format: in vivo
Details: oral administration; other target proteins
From the text: MMP-1 expression levels were undetected after 10 days post-injection.

## CCC[C@@H](N(NC(=O)c1cccc(OC)c1CC)C(=O)c1cc(C)cc(C)c1)C(C)(C)C [veledimex, 3,5-dimethyl-benzoic acid (R)—N-(1-tert-butyl-butyl)-N′-(2-ethyl-3-methoxy-benzoyl)-hydrazide]
  levels of veledimex in the tissue at which maximal expression of target protein can be achieved: approximately 250 ng/mL
